The values that follow come from patent US12390444B2, “Stabilizing vitamin C topical formulations” (MF Beauty Partners LLC, priority 2020, dated 2025).

The procedure of data set [1]:
This example was reproduced.
All mixtures were heated to 85° C.

The nature of data set [2]: Solubility of optional additional components in non-aqueous solvents. Type of data set: physicochemical. An excerpt: Additional ingredients were chosen for their compatibility with (e.g., miscibility in) 1,3 propanediol, 1,2 propanediol, and 1,3 butanediol.
For data set [3] the following is noted: most solvents; cited from earlier work.
The subject of data set [4] is skin. To be noted: 4% HQ versus 5% Vitamin C; cited from earlier work.
The subject of a further data set is erythema (skin redness). To be noted: concentrations of 0.2%; cited from earlier work.
Data set [5] has as its system skin. To be noted: in vivo; cited from earlier work.

Take `NC(N)=O` [U, urea]: in data set [1] (ascorbic acid together with urea in propylene glycol, butylene glycol and propanediol), the “maximum concentrations soluble before urea starts to precipitate (the ceiling)” value is recorded as 20%.
Take `O=C(O)CCCCCCCC(=O)O` [AzA, Azelaic acid]: in data set [2] (1,3 propanediol), the “concentration of AzA that can be solubilized” value is recorded as “up to 10%” and the “solubility of AzA in presence of hydroxyethyl urea” value is given as “slightly increased”. Moreover, in data set [2] (with 10% AA, 5% U in a 1,3 propanediol base), the “AzA solubilized together with AA and U” value was found to be 7.5%. The “solubility of AzA” value in data set [3] is listed as “very poorly soluble”.
For `Oc1ccc(O)cc1` [HQ, hydroquinone], in the data set with skin [4], the improvement is given as 93% and the side-effects is recorded as 68.7%.
As for Madecassoside, in the data set on erythema (skin redness), the “reduction of erythema (skin redness), clinical data” value is on record as “desirable ability to reduce erythema”. The solubility of madecassoside entry in data set [2] (concentration of 0.2%, 1,3 propanediol, 1,2 propanediol and 1,3 butanediol) was “soluble”.
Regarding `O=C1O[C@H]([C@@H](O)CO)C(O)=C1O` [ascorbic acid, L-ascorbic acid], the degradation on heating result in data set [1] was “showed signs of degradation”. Further, in the data set with skin [4], the improvement is on record as 62.5%.
On to `COc1cc(CC(C(C)=O)C(C)=O)ccc1O` [Acetyl zingerone], for which the “solubility of acetyl zingerone” value in data set [2] (0.5-1%, 1,3 propanediol, 1,2 propanediol and 1,3 butanediol) is “readily soluble”.
In the case of `CC1(C)[C@@H](O[C@H]2O[C@H](C(=O)O)[C@@H](O)[C@H](O)[C@H]2O[C@@H]2O[C@H](C(=O)O)[C@@H](O)[C@H](O)[C@H]2O)CC[C@]2(C)[C@H]3C(=O)C=C4[C@@H]5C[C@@](C)(C(=O)O)CC[C@]5(C)CC[C@@]4(C)[C@]3(C)CC[C@@H]12` [glycyrrhizic acid, Glycyrrhizic acid], the “solubility of glycyrrhizic acid” value in data set [2] (1,3-propanediol) was “shows solubility”.
As for `CC(C)(CO)[C@@H](O)C(=O)NCCCO` [Panthenol], the “concentration at which inhibition of transepidermal water loss is apparent” value in the data set with skin [5] was no less than 1%.
